Legend:
Assay type in all cases: in vivo
[1] = tested on: Hibiscus sabdariffa; assay: Antagonistic effect with Artemisia annua seed extract on germination and seedling growth; settings: A. annua seed extract (1.3 g seeds/100 ml) alone or mixed 1:1 with 0.01 μm compound, control = 100%
Description: (§1) On the other hand, it is evident from Exp. 1-4 that phyllocladane diterpenenoids have produced germination and growth promoting activities on various plant species. To find out the combined effect of A. annua extract and phyllocladane diterpenoides on the germination and seedling growth of different plant species, 1:1 ratio of these compounds and A.annua extract were tested in the present experiment. For this, Hibiscus sabdariffa and Sesbania cannabina seeds were germinated in A.annua seed extract and solutions prepared by mixing this extract with 0.01 μm calliterpenone and calliterpenone mono-acetate respectively (Table 7). For the preparation of A.annua extract, 1.3 g seeds were soaked in 100 ml of distilled water for 24 hrs for testing on H. sabdariffa. Since, at this concentration, seeds of this species have shown 69% mortality which may be taken as good indicator. This effect was also recorded in S.cannabina. Since, in this case, seeds were almost half in weight as compared to the seeds of H. sabdariffa, accordingly, 0.65 g A. annua seeds were soaked in 100 ml of distilled water for 24 hrs to produce identical constraints in S. cannabina. For control, seeds were germinated in distilled water and all the observations were compared with it. […] Therefore, calliterpenone and its derivatives can be used to nullify the effects of other growth retardants/allelochemicals in the fields for their reclamation.

[2] = tested on: Sesbania cannabina; assay: as above; settings: A. annua seed extract (0.65 g seeds/100 ml) alone or mixed 1:1 with 0.01 μm compound, control = 100%
Description: as §1

[3] = tested on: Hibiscus sabdariffa; assay: Seed germination and seedling growth, comparison with GA3 (Example 4)
Description: (§2) 100 ml stalk solutions of 0.1 μM concentration were prepared by dissolving required amounts of various test compounds (depending upon their molecular weights) in minimum amount of ethanol or acetone and adding distilled water. From this stalk solution, 0.01 μM and 0.001 μM concentrations were prepared. Calliterpenone and calliterpenone di acetate was dissolved in 2.0 ml absolute ethanol (Merc), while; calliterpenone monoacetate, isopropylideno calliterpenone and trihydroxy calliterpenone were dissolved in 2.0 ml spectral grade acetone (Ranbaxy). The respective control test solutions of distilled water of each concentration also contained equal amount of absolute ethanol or acetone. For an assay, 10 seeds were placed on Whatman filter paper (moistened with 5.0 ml of test solution in a 9.0 cm diameter petridish (in triplicate). The pteridishes were incubated for 9 days in a germinator, maintained at 25.0±1.0° C. with 90% humidity and 4 hr light/day. At the end of incubation, observations were recorded on the seedlings in terms of germination, shoot and root growth. The data on the length of shoot and root of seedlings and number of seeds germinated in different concentrations of compounds were compared with the control, which was taken as 100%. The data thus obtained were presented in Table-1.
(§3) Effect of calliterpenone and its derivatives on seed germination and seedling growth in Hibiscus sabdariffa and Sesbania cannabina were measured in the similar way as these were measured in Example-1.

[4] = tested on: Sesbania cannabina; assay: as above
Description: as §2, §3

[5] = tested on: Vigna radiata; assay: Seed germination and seedling shoot/root growth test in petridishes; settings: Vigna radiata, control = 100%
Description: (§4) As noted above the activity of phyllocladane diterpenoids used in the practice of this invention was observed when these compounds were tested for their effects on seed germination, root and shoot growth of certain plant species and their antagonistic effect on plant growth retardants by the method described by Bagchi G. D. et al Phytochemistry, 45(6)1131-1133, 1997.
(§5) Plant growth promoting activity of calliterpenone, calliterpenone monoacetate, and calliterpenone di-acetate was examined at 0.1, 0.01 and 0.001 μM concentrations. The tests were conducted against seeds of two monocotyledonous (Hordeum vulgare and Triticum aestivum) and two dicotyledonous plants (Vigna radiata and Trigonella foenum-graecum). Control seeds were germinated in distilled water and all the observations were compared with […]. The root and shoot growth of all the plant species were affected by the phyllocladane diterpenoids, although the extent of effect varied considerably in the plant species with the chemicals and their concentrations. […] Details of the procedure adopted and results obtained are discussed in the various examples.
as §2
(§6) Root growth of seedlings was measured in the similar way as shoot growth from the experiment as described in Example 1.
(§7) Effect of test compounds on germination was observed from the same experiment as described in Example 1.

[6] = tested on: Trigonella foenum-graecum; assay: as above; settings: for Percent (%) germination of seeds in relation to control on 9th day after sowing / Percent (%) root growth of seedlings in relation to control on 9th day after sowing / Percent (%) shoot growth of seedlings in relation to control on 9th day after sowing: Trigonella foenum graecum, control = 100%
Description: as §4, §5, §2, §6, §7

[7] = tested on: Hordeum vulgare; assay: as above; settings: control = 100%
Description: as §4, §5, §2, §6, §7

[8] = tested on: Triticum aestivum; assay: as above; settings: control = 100%
Description: as §4, §5, §2, §6, §7

Structure (SMILES): CC1(C)C(=O)CC[C@@]2(C)[C@H]1CC[C@@]13C[C@H](CC[C@@H]12)[C@@](O)(CO)C3 [Calliterpenone, 16α, 17 dihydroxy phyllocladan-3 one]
- Percent (%) germination in relation to control on the 9th day after sowing [1]: nullified the germination retarding effect
- Percent (%) seedling growth, Root, in relation to control on the 9th day after sowing [1]: 150%
- Percent (%) seedling growth, Stem, in relation to control on the 9th day after sowing [1]: 130%
- Percent (%) germination in relation to control on the 9th day after sowing [2]: no improvement in seed germination
- Percent (%) seedling growth, Root, in relation to control on the 9th day after sowing [2]: 225%
- Percent (%) seedling growth, Stem, in relation to control on the 9th day after sowing [2]: 144%
- Germination as compared to respective control ([3]; 0.001 μM): 133%
- Germination compared with GA3 ([3]; 0.001 μM): 133%
- Root growth as compared to respective control ([3]; 0.001 μM): 157%
- Seed Ger. ([3]; 0.001 μM): 4
- Shoot growth as compared to GA3 (100%) ([3]; 0.001 μM): 110%
- Shoot growth as compared to respective control ([3]; 0.001 μM): 182%
- Root Growth (mm) 3rd Day ([3]; 0.001 μM): 12.6 mm
- Shoot growth 3rd Day ([3]; 0.001 μM): 27.1
- Root Growth (mm) 6th Day ([3]; 0.001 μM): 28.6 mm
- Shoot growth 6th Day ([3]; 0.001 μM): 61.0
- Root Growth (mm) 9th Day ([3]; 0.001 μM, 9th day): 33.4 mm
- Root growth as compared to GA3 taken as 100% ([3]; 0.001 μM, 9th day): 134%
- Shoot growth 9th Day ([3]; 0.001 μM, 9th day): 94.6
- Seed Ger. ([3]; 0.01 μM): 2
- Root Growth (mm) 3rd Day ([3]; 0.01 μM): 17.0 mm
- Shoot growth 3rd Day ([3]; 0.01 μM): 39.8
- Root Growth (mm) 6th Day ([3]; 0.01 μM): 19.2 mm
- Shoot growth 6th Day ([3]; 0.01 μM): 78.0
- Root Growth (mm) 9th Day ([3]; 0.01 μM, 9th day): 25.8 mm
- Shoot growth 9th Day ([3]; 0.01 μM, 9th day): 85.0
- Seed Ger. ([3]; 0.1 μM): 2
- Root Growth (mm) 3rd Day ([3]; 0.1 μM): 14.0 mm
- Shoot growth 3rd Day ([3]; 0.1 μM): 13.6
- Root Growth (mm) 6th Day ([3]; 0.1 μM): 21.5 mm
- Shoot growth 6th Day ([3]; 0.1 μM): 52.5
- Root Growth (mm) 9th Day ([3]; 0.1 μM, 9th day): 23.0 mm
- Shoot growth 9th Day ([3]; 0.1 μM, 9th day): 72.5
- Germination as compared to respective control ([4]; 0.001 μM): 150%
- Germination compared with GA3 ([4]; 0.001 μM): 150%
- Root growth as compared to respective control ([4]; 0.001 μM): 119%
- Seed Ger. ([4]; 0.001 μM): 3
- Shoot growth as compared to GA3 (100%) ([4]; 0.001 μM): 104%
- Shoot growth as compared to respective control ([4]; 0.001 μM): 120%
- Root Growth (mm) 3rd Day ([4]; 0.001 μM): 30.0 mm
- Shoot growth 3rd Day ([4]; 0.001 μM): 17.0
- Root Growth (mm) 6th Day ([4]; 0.001 μM): 33.6 mm
- Shoot growth 6th Day ([4]; 0.001 μM): 86.2
- Root Growth (mm) 9th Day ([4]; 0.001 μM, 9th day): 43.4 mm
- Root growth as compared to GA3 taken as 100% ([4]; 0.001 μM, 9th day): 109%
- Shoot growth 9th Day ([4]; 0.001 μM, 9th day): 108.2
- Seed Ger. ([4]; 0.01 μM): 3
- Root Growth (mm) 3rd Day ([4]; 0.01 μM): 14.5 mm
- Shoot growth 3rd Day ([4]; 0.01 μM): 14.2
- Root Growth (mm) 6th Day ([4]; 0.01 μM): 21.0 mm
- Shoot growth 6th Day ([4]; 0.01 μM): 48.8
- Root Growth (mm) 9th Day ([4]; 0.01 μM, 9th day): 34.8 mm
- Shoot growth 9th Day ([4]; 0.01 μM, 9th day): 67.3
- Seed Ger. ([4]; 0.1 μM): 4
- Root Growth (mm) 3rd Day ([4]; 0.1 μM): 7.3 mm
- Shoot growth 3rd Day ([4]; 0.1 μM): 10.3
- Root Growth (mm) 6th Day ([4]; 0.1 μM): 16.0 mm
- Shoot growth 6th Day ([4]; 0.1 μM): 39.3
- Root Growth (mm) 9th Day ([4]; 0.1 μM, 9th day): 24.8 mm
- Shoot growth 9th Day ([4]; 0.1 μM, 9th day): 61.5
- Percent (%) germination of seeds in relation to control on 9th day after sowing ([5]; 0.001 μM): 250%
- Percent (%) root growth of seedlings in relation to control on 9th day after sowing ([5]; 0.001 μM): 87%
- Percent (%) shoot growth of seedlings in relation to control on 9th day after sowing ([5]; 0.001 μM): 121%
- Percent (%) germination of seeds in relation to control on 9th day after sowing ([5]; 0.01 μM): 150%
- Percent (%) root growth of seedlings in relation to control on 9th day after sowing ([5]; 0.01 μM): 138%
- Percent (%) shoot growth of seedlings in relation to control on 9th day after sowing ([5]; 0.01 μM): 134%
- Percent (%) germination of seeds in relation to control on 9th day after sowing ([5]; 0.1 μM): 150%
- Percent (%) root growth of seedlings in relation to control on 9th day after sowing ([5]; 0.1 μM): 76%
- Percent (%) shoot growth of seedlings in relation to control on 9th day after sowing ([5]; 0.1 μM): 128%
- Percent (%) germination of seeds in relation to control on 9th day after sowing ([6]; 0.001 μM): 113%
- Percent (%) root growth of seedlings in relation to control on 9th day after sowing ([6]; 0.001 μM): 141%
- Percent (%) shoot growth of seedlings in relation to control on 9th day after sowing ([6]; 0.001 μM): 121%
- Percent (%) germination of seeds in relation to control on 9th day after sowing ([6]; 0.01 μM): 125%
- Percent (%) root growth of seedlings in relation to control on 9th day after sowing ([6]; 0.01 μM): 164%
- Percent (%) shoot growth of seedlings in relation to control on 9th day after sowing ([6]; 0.01 μM): 130%
- Percent (%) germination of seeds in relation to control on 9th day after sowing ([6]; 0.1 μM): 113%
- Percent (%) root growth of seedlings in relation to control on 9th day after sowing ([6]; 0.1 μM): 150%
- Percent (%) shoot growth of seedlings in relation to control on 9th day after sowing ([6]; 0.1 μM): 121%
- Seed germination as compared to 100% in control ([6]; Trigonella foenum-graceum, concentration not specified): 113%
- Percent (%) germination of seeds in relation to control on 9th day after sowing ([7]; 0.001 μM): 100%
- Percent (%) root growth of seedlings in relation to control on 9th day after sowing ([7]; 0.001 μM): 116%
- Percent (%) shoot growth of seedlings in relation to control on 9th day after sowing ([7]; 0.001 μM): 118%
- Percent (%) germination of seeds in relation to control on 9th day after sowing ([7]; 0.01 μM): 100%
- Percent (%) root growth of seedlings in relation to control on 9th day after sowing ([7]; 0.01 μM): 116%
- Percent (%) shoot growth of seedlings in relation to control on 9th day after sowing ([7]; 0.01 μM): 103%
- Percent (%) germination of seeds in relation to control on 9th day after sowing ([7]; 0.1 μM): 100%
- Percent (%) root growth of seedlings in relation to control on 9th day after sowing ([7]; 0.1 μM): 82%
- Percent (%) shoot growth of seedlings in relation to control on 9th day after sowing ([7]; 0.1 μM): 102%
- Percent (%) germination of seeds in relation to control on 9th day after sowing ([8]; 0.001 μM): 100%
- Percent (%) root growth of seedlings in relation to control on 9th day after sowing ([8]; 0.001 μM): 136%
- Percent (%) shoot growth of seedlings in relation to control on 9th day after sowing ([8]; 0.001 μM): 105%
- Percent (%) germination of seeds in relation to control on 9th day after sowing ([8]; 0.01 μM): 100%
- Percent (%) root growth of seedlings in relation to control on 9th day after sowing ([8]; 0.01 μM): 80%
- Percent (%) shoot growth of seedlings in relation to control on 9th day after sowing ([8]; 0.01 μM): 100%
- Percent (%) germination of seeds in relation to control on 9th day after sowing ([8]; 0.1 μM): 100%
- Percent (%) root growth of seedlings in relation to control on 9th day after sowing ([8]; 0.1 μM): 80%
- Percent (%) shoot growth of seedlings in relation to control on 9th day after sowing ([8]; 0.1 μM): 95%
